Results on 19 compounds are retold here after patent US8349880B2, “Bicyclic compounds for the reduction of beta-amyloid production” (Bristol-Myers Squibb Company, priority 2009, dated 2013).

The structures appear in SMILES notation.

For one experiment, the system named is Aβ1-42 production. The experiment can be described thus: Cellular assay for inhibition of Aβ1-42 production (H4 APP751 SWE clone 8.20). The class given is cell-based. The note with it: 19 h, H4 APP751 SWE clone 8.20 cells, 19 h incubation; read-out: Activity Rating (Aβ42 cellular IC50, given as a number). The method, boiled down: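 Aβ42 level read with antibodies 565, against the Aβ42 neoepitope, and N-terminal 26D6, incubated overnight at 4° C, after exposure of H4 APP751 SWE clone 8.20 cells to compound for 19 h at 37° C. Medium was DMEM plus 0.0125% BSA, 1.5×10^4 cells/well. IC50 values come from curve fitting.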
Broadly, the IC50 is the midpoint of a concentration-inhibition curve. `COc1cc(Nc2nc3n(n2)CCCCC3c2ccc(S(C)(=O)=O)cc2)ccc1-n1cnc(C)n1` (stereo not shown) [Example 129, N-(3-methoxy-4-(3-methyl-1H-1,2,4-triazol-1-yl)phenyl)-9-(4-(methylsulfonyl)phenyl)-6,7,8,9-tetrahydro-5H-[1,2,4]-triazolo[1,5-a]azepin-2-amine 2,2,2-trifluoroacetate]: the IC50 is 1000 nM.

For `COc1cc(Nc2nc3n(n2)CCC(N(C)C)CC3c2ccc(F)cc2)ccc1-n1cnc(Cl)c1` (stereo not shown) [Example 141, N2-(4-(4-chloro-1H-imidazol-1-yl)-3-methoxyphenyl)-9-(4-fluorophenyl)-N7,N7-dimethyl-6,7,8,9-tetrahydro-5H-[1,2,4]triazolo[1,5-a]azepine-2,7-diamine], the IC50 was determined as 70 nM.

The experiment is the same for the next values; noted with them: 19 h, H4 APP751 SWE clone 8.20 cells, 19 h incubation; read-out: Activity Rating (based on Aβ42 cellular IC50 values).
Regarding `COc1cc(Nc2nc3n(n2)CCCCC3c2ccc(OCC(F)(F)F)cc2)c(F)cc1-n1cnc(C)n1` (stereo not shown) [Example 116, N-(2-fluoro-5-methoxy-4-(3-methyl-1H-1,2,4-triazol-1-yl)phenyl)-9-(4-(2,2,2-trifluoroethoxy)phenyl)-6,7,8,9-tetrahydro-5H-[1,2,4]triazolo[1,5-a]azepin-2-amine], the IC50 lay in the range of 10 to 100 nM. In the case of `Cc1ncnn1-c1ccc(Nc2nc3n(n2)CCCCC3c2ccc(OCC(F)F)cc2)cc1F` (stereo not shown) [Example 119, 9-(4-(2,2-difluoroethoxy)phenyl)-N-(3-fluoro-4-(5-methyl-1H-1,2,4-triazol-1-yl)phenyl)-6,7,8,9-tetrahydro-5H-[1,2,4]triazolo[1,5-a]azepin-2-amine], the IC50 is 10 to 100 nM.

Regarding `Cc1ncn(-c2ccc(Nc3nc4n(n3)CCCC4c3ccc(OC(F)(F)F)cc3)cc2F)n1` (stereo not shown) [Example 122, N-(3-fluoro-4-(3-methyl-1H-1,2,4-triazol-1-yl)phenyl)-8-(4-(trifluoromethoxy)phenyl)-5,6,7,8-tetrahydro-[1,2,4]triazolo[1,5-a]pyridin-2-amine 2,2,2-trifluoroacetate], the 50% inhibitory concentration (IC50) lay in the range of 10 to 100 nM.

On to `COc1cc(Nc2nc3n(n2)CCCCC3c2ccc(OC(F)F)cc2)ccc1-n1cnc(C)n1` (stereo not shown) [Example 127, 9-(4-(difluoromethoxy)phenyl)-N-(3-methoxy-4-(3-methyl-1H-1,2,4-triazol-1-yl)phenyl)-6,7,8,9-tetrahydro-5H-[1,2,4]triazolo[1,5-a]azepin-2-amine 2,2,2-trifluoroacetate], for which the IC50 was 10 to 100 nM. Take `COc1cc(Nc2nc3n(n2)CCCCC3c2ccc(OC(F)(F)F)c(F)c2)ccc1-n1cnc(C)n1` (stereo not shown) [Example 128, 9-(3-fluoro-4-(trifluoromethoxy)phenyl)-N-(3-methoxy-4-(3-methyl-1H-1,2,4-triazol-1-yl)phenyl)-6,7,8,9-tetrahydro-5H-[1,2,4]triazolo[1,5-a]azepin-2-amine 2,2,2-trifluoroacetate]: the IC50 lay in the range of 10 to 100 nM. For `COc1cc(Nc2nc3n(n2)CCCCC3c2ccc(S(=O)(=O)C(F)(F)F)cc2)ccc1-n1cnc(C)n1` (stereo not shown) [Example 130, N-(3-methoxy-4-(3-methyl-1H-1,2,4-triazol-1-yl)phenyl)-9-(4-(trifluoromethylsulfonyl)phenyl)-6,7,8,9-tetrahydro-5H-[1,2,4]triazolo[1,5-a]azepin-2-amine 2,2,2-trifluoroacetate], the IC50 lay in the range of 10 to 100 nM. As to `CCOc1ccc(C2CCCCn3nc(Nc4ccc(-n5cnc(Cl)c5)c(OC)c4)nc32)cc1` (stereo not shown) [Example 131, N-(4-(4-chloro-1H-imidazol-1-yl)-3-methoxyphenyl)-9-(4-ethoxyphenyl)-6,7,8,9-tetrahydro-5H-[1,2,4]triazolo[1,5-a]azepin-2-amine 2,2,2-trifluoroacetate], the IC50 lay in the range of 10 to 100 nM. Same read-out and setting: the result for `CCOc1ccc(C2CCCCn3nc(Nc4ccc(-n5cnc(C)n5)c(OC)c4)nc32)cc1` (stereo not shown) [Example 132, 9-(4-ethoxyphenyl)-N-(3-methoxy-4-(3-methyl-1H-1,2,4-triazol-1-yl)phenyl)-6,7,8,9-tetrahydro-5H-[1,2,4]triazolo[1,5-a]azepin-2-amine 2,2,2-trifluoroacetate] reads 10 to 100 nM. As for `C=C1CCn2nc(Nc3ccc(-n4cnc(Cl)c4)c(OC)c3)nc2C(c2ccc(F)cc2)C1` (stereo not shown) [Example 133, N-(4-(4-chloro-1H-imidazol-1-yl)-3-methoxyphenyl)-9-(4-fluorophenyl)-7-methylene-6,7,8,9-tetrahydro-5H-[1,2,4]triazolo[1,5-a]azepin-2-amine 2,2,2-trifluoroacetate], the IC50 is 10 to 100 nM. As to `COc1cc(Nc2nc3n(n2)CCC(C)CC3c2ccc(F)cc2)ccc1-n1cnc(Cl)c1` (stereo not shown) [Example 136, N-(4-(4-chloro-1H-imidazol-1-yl)-3-methoxyphenyl)-9-(4-fluorophenyl)-7-methyl-6,7,8,9-tetrahydro-5H-[1,2,4]triazolo[1,5-a]azepin-2-amine], the 50% inhibitory concentration (IC50) was less than 10 nM. Take `COc1cc(Nc2nc3n(n2)CCC(=O)CC3c2ccc(F)cc2)ccc1-n1cnc(Cl)c1` (stereo not shown) [Example 137, 2-(4-(4-chloro-1H-imidazol-1-yl)-3-methoxyphenylamino)-9-(4-fluorophenyl)-8,9-dihydro-5H-[1,2,4]triazolo[1,5-a]azepin-7(6H)-one 2,2,2-trifluoroacetate]: the IC50 is less than 10 nM.

As for `CO/N=C1/CCn2nc(Nc3ccc(-n4cnc(Cl)c4)c(OC)c3)nc2C(c2ccc(F)cc2)C1` (stereo not shown) [Example 138, (E)-2-(4-(4-chloro-1H-imidazol-1-yl)-3-methoxyphenylamino)-9-(4-fluorophenyl)-8,9-dihydro-5H-[1,2,4]triazolo[1,5-a]azepin-7(6H)-one O-methyl oxime 2,2,2-trifluoroacetate], the half-maximal inhibitory concentration (IC50) lay in the range of 10 to 100 nM. Regarding `COc1cc(Nc2nc3n(n2)CCC(F)(F)CC3c2ccc(F)cc2)ccc1-n1cnc(Cl)c1` (stereo not shown) [Example 139, N-(4-(4-chloro-1H-imidazol-1-yl)-3-methoxyphenyl)-7,7-difluoro-9-(4-fluorophenyl)-6,7,8,9-tetrahydro-5H-[1,2,4]triazolo[1,5-a]azepin-2-amine 2,2,2-trifluoroacetate], the IC50 was in the range of 10 to 100 nM. In the case of `CNC1CCn2nc(Nc3ccc(-n4cnc(Cl)c4)c(OC)c3)nc2C(c2ccc(F)cc2)C1` (stereo not shown) [Example 140, N2-(4-(4-chloro-1H-imidazol-1-yl)-3-methoxyphenyl)-9-(4-fluorophenyl)-N-7-methyl-6,7,8,9-tetrahydro-5H-[1,2,4]triazolo[1,5-a]azepine-2,7-diamine 2,2,2-trifluoroacetate], the half-inhibitory concentration (IC50) lay within 10 to 100 nM. For `COc1cc(Nc2nc3n(n2)CCC(N2CCC2)CC3c2ccc(F)cc2)ccc1-n1cnc(Cl)c1` (stereo not shown) [Example 142, 7-(azetidin-1-yl)-N-(4-(4-chloro-1H-imidazol-1-yl)-3-methoxyphenyl)-9-(4-fluorophenyl)-6,7,8,9-tetrahydro-5H-[1,2,4]triazolo[1,5-a]azepin-2-amine], the IC50 was 10 to 100 nM. Regarding `COc1cc(Nc2nc3n(n2)CCC(N2CCCC2)CC3c2ccc(F)cc2)ccc1-n1cnc(Cl)c1` (stereo not shown) [Example 143, N-(4-(4-chloro-1H-imidazol-1-yl)-3-methoxyphenyl)-9-(4-fluorophenyl)-7-(pyrrolidin-1-yl)-6,7,8,9-tetrahydro-5H-[1,2,4]triazolo[1,5-a]azepin-2-amine], the IC50 lay within 10 to 100 nM. On to `COc1cc(Nc2nc3n(n2)CCC2(CC3c3ccc(F)cc3)OCCO2)ccc1-n1cnc(Cl)c1` (stereo not shown) [Example 144, N-(4-(4-chloro-1H-imidazol-1-yl)-3-methoxyphenyl)-9-(4-fluorophenyl)-5,6,8,9-tetrahydrospiro[[1,2,4]triazolo[1,5-a]azepine-7,2′-[1,3]dioxolan]-2-amine 2,2,2-trifluoroacetate], for which the IC50 was less than 10 nM.
